Where a name gives a salt, the structure may show the parent alone. Read-outs that look alike come from different tables or passages of the source.
What was measured:
[1] = molecular target: DNMT1 (Homo sapiens, UniProt P26358); experiment: DNMT1 biochemical activity, breaklight assay and/or SPA assay
[2] = system: erythroid progenitor cells (EPCs); experiment: Fetal hemoglobin (HbF) ELISA in day 7 erythroid progenitor cells; assay type: cell-based, human; conditions: Homo sapiens, Erythroid progenitor cell, HbF ELISA, day 7 EPCs, 5 days; read-out: EPC ELISA (pEC50 category) (converted);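 also: for fetal hemoglobin induction normalized to vehicle-treated cells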
Outline: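 Day 7 EPCs from human bone marrow CD34+ cells were plated at 1,000 cells/well in media with 3 U/mL rhEPO. They were exposed to a 22-point dilution ([…]) for 5 days at 37 °C. Lysate HbF was measured by sandwich ELISA (OD450) and normalized to DMSO control wells.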

[3] = binned activity in either the breaklight or the SPA assay, read-out: DNMT1 BioChemical (pIC50 category) (converted)
[4] = breaklight assay and/or SPA assay, repeated experimental runs, read-out: average pIC50 against DNMT1 (converted)
[5] = binned activity in either the breaklight or the SPA assay

DNMT1, sequence (P26358 whole entry, looked up): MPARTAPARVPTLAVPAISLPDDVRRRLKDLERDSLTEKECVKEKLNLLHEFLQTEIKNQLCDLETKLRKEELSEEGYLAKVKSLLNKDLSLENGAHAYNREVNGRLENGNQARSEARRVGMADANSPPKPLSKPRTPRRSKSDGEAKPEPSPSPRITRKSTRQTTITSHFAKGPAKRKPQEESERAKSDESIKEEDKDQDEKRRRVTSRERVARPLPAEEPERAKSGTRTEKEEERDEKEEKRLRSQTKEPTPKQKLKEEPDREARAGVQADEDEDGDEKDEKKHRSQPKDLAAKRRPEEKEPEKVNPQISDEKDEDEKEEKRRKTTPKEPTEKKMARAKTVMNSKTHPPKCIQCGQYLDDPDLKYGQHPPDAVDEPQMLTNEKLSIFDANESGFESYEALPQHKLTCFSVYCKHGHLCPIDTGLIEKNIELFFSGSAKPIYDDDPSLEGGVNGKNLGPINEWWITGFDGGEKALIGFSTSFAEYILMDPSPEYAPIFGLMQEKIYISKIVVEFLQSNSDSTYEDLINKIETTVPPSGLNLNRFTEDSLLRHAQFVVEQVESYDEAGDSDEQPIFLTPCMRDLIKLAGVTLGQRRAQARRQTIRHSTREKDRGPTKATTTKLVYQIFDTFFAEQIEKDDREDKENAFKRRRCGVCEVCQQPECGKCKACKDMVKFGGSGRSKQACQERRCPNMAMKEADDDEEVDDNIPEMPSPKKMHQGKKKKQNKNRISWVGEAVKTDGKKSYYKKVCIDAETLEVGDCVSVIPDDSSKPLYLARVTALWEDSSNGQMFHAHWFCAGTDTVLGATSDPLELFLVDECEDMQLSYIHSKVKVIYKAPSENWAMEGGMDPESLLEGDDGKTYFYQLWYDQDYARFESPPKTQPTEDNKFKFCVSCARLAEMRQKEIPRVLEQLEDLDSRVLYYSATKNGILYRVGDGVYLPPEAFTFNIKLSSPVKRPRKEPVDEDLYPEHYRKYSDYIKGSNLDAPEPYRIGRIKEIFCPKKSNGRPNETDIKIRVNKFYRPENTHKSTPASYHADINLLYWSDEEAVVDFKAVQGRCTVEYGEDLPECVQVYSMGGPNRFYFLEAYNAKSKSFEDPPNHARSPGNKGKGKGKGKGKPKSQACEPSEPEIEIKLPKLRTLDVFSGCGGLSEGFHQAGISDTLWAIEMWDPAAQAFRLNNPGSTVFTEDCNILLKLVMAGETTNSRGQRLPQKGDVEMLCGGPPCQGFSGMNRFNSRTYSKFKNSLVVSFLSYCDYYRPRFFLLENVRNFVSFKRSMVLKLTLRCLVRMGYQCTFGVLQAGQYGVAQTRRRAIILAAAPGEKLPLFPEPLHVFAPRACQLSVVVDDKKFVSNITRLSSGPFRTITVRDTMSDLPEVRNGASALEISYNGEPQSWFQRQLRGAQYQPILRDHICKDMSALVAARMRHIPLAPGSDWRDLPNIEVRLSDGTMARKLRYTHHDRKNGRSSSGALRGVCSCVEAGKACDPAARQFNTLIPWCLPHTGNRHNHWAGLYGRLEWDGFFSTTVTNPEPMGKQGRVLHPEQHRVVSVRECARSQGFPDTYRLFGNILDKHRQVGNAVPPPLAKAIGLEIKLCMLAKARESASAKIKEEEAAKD

SMILES	IC50 [1, 3] [nM]	IC50 [1, 4] [nM]	EC50 [2] [nM]	DNMT1 BioChemical (pIC50 category) [1, 5]
CNc1c(C#N)c(SCc2ccc(CNC(C)=O)cc2)nc(N2CCCN(C)CC2)c1C#N [Example 91, N-(4-(((3,5-Dicyano-6-(4-methyl-1,4-diazepan-1-yl)-4-(methylamino)pyridin-2-yl)thio)methyl)benzyl)acetamide]	316 to 1000		1000 to 31600	
CCc1c(C#N)c(SCc2ccc3c(c2)CCN(C(C)=O)C3)nc(N(C)C)c1C#N [Example 92, 2-(((2-Acetyl-1,2,3,4-tetrahydroisoquinolin-6-yl)methyl)thio)-6-(dimethylamino)-4-ethylpyridine-3,5-dicarbonitrile]	316 to 1000	≥ 1000	1000 to 31600	
CCc1c(C#N)c(SCc2ccccc2)nc(N2CCC(NC(=O)CN)CC2)c1C#N [Example 94, 2-Amino-N-(1-(6-(benzylthio)-3,5-dicyano-4-ethylpyridin-2-yl)piperidin-4-yl)acetamide, Trifluoroacetic Acid Salt]	316 to 1000		> 31600	
CCc1c(C#N)c(SCc2ccccc2)nc(N2CCC(NC(=O)C(C)(C)N)CC2)c1C#N [Example 95, 2-Amino-N-(1-(6-(benzylthio)-3,5-dicyano-4-ethylpyridin-2-yl)piperidin-4-yl)-2-methylpropanamide, Formic Acid Salt]	316 to 1000		1000 to 31600	
CSc1c(C#N)c(SCc2ccc(CNC(C)=O)cc2)nc(N2CCCN(C)CC2)c1C#N [Example 101, N-(4-(((3,5-Dicyano-6-(4-methyl-1,4-diazepan-1-yl)-4-(methylthio)pyridin-2-yl)thio)methyl)benzyl)acetamide]			316 to 1000	D (Category D: ≥6.5)
CCc1c(C#N)c(SCc2ccc(/C=C/C(=O)O)cc2)nc(N(C)C)c1C#N [Example 102, (E)-3-(4-(((3,5-Dicyano-6-(dimethylamino)-4-ethylpyridin-2-yl)thio)methyl)phenyl)acrylic acid, Trifluoroacetic Acid Salt]	1000 to 31600	≥ 1000	> 31600	
CCc1c(C#N)c(SCc2ccc(CNC(C)=O)cc2)nc(N(C)CCO)c1C#N [Example 103, N-(4-(((3,5-Dicyano-4-ethyl-6-((2-hydroxyethyl)(methyl)amino)pyridin-2-yl)thio)methyl)benzyl)acetamide]	1000 to 31600	≥ 1000	1000 to 31600	
CCc1c(C#N)c(SC(C(N)=O)c2ccccc2)nc(N2CCCN(CC(=O)OC)CC2)c1C#N (stereo not shown) [Example 108, Methyl 2-[4-(6-{[carbamoyl(phenyl)methyl]sulfanyl}-3,5-dicyano-4-ethylpyridin-2-yl)-1,4-diazepan-1-yl]acetate]	1000 to 31600	≥ 1000	316 to 1000	
CN1CCN(c2nc(SC(C(N)=O)c3ccccc3)c(C#N)c(C3CC3)c2C#N)CCC1=O (stereo not shown) [Example 109, 2-{[3,5-Dicyano-4-cyclopropyl-6-(4-methyl-5-oxo-1,4-diazepan-1-yl)pyridin-2-yl]sulfanyl}-2-phenylacetamide]	316 to 1000	≥ 1000	< 316	
N#Cc1c(SC(C(N)=O)c2ccccc2)nc(N2CCNC(=O)CC2)c(C#N)c1C1CC1 (stereo not shown) [Example 110, 2-{[3,5-Dicyano-4-cyclopropyl-6-(5-oxo-1,4-diazepan-1-yl)pyridin-2-yl]sulfanyl}-2-phenylacetamide]	316 to 1000	316 to 1000	1000 to 31600	

Now from value to molecule:

IC50 [1, 3] [nM]	IC50 [1, 4] [nM]	EC50 [2] [nM]	DNMT1 BioChemical (pIC50 category) [1, 5]	SMILES
316 to 1000	316 to 1000	1000 to 31600		CCc1c(C#N)c(SCc2ccc(CO)cc2)nc(N2CCCN(C)CC2)c1C#N [Example 85, 4-Ethyl-2-((4-(hydroxymethyl)benzyl)thio)-6-(4-methyl-1,4-diazepan-1-yl)pyridine-3,5-dicarbonitrile]
		316 to 1000	D (Category D: ≥6.5)	CCC(=O)NCc1ccc(CSc2nc(N3CCCN(C)CC3)c(C#N)c(CC)c2C#N)cc1 [Example 87, N-(4-(((3,5-Dicyano-4-ethyl-6-(4-methyl-1,4-diazepan-1-yl)pyridin-2-yl)thio)methyl)benzyl)propionamide]
316 to 1000		> 31600		CCc1c(C#N)c(SCc2ccc(CNC(=O)C(C)C)cc2)nc(N2CCCN(C)CC2)c1C#N [Example 88, N-(4-(((3,5-Dicyano-4-ethyl-6-(4-methyl-1,4-diazepan-1-yl)pyridin-2-yl)thio)methyl)benzyl)isobutyramide]
316 to 1000		> 31600		CCc1c(C#N)c(SCc2ccc(CNC(=O)CC(C)C)cc2)nc(N2CCCN(C)CC2)c1C#N [Example 89, N-(4-(((3,5-Dicyano-4-ethyl-6-(4-methyl-1,4-diazepan-1-yl)pyridin-2-yl)thio)methyl)benzyl)-3-methylbutanamide]
316 to 1000		> 31600		CCc1c(C#N)c(SCc2ccc(CNCCO)cc2)nc(N2CCCN(C)CC2)c1C#N [Example 90, 4-Ethyl-2-((4-(((2-hydroxyethyl)amino)methyl)benzyl)thio)-6-(4-methyl-1,4-diazepan-1-yl)pyridine-3,5-dicarbonitrile]
316 to 1000		> 31600		CCc1c(C#N)c(SCc2ccc(C#N)cc2)nc(N2CCCN(C)CC2)c1C#N [Example 93, 2-((4-Cyanobenzyl)thio)-4-ethyl-6-(4-methyl-1,4-diazepan-1-yl)pyridine-3,5-dicarbonitrile]
		> 31600	D (Category D: ≥6.5)	CCc1c(C#N)c(SCc2ccc(CNC(=O)CCN)cc2)nc(N2CCCN(C)CC2)c1C#N [Example 96, 3-Amino-N-(4-(((3,5-dicyano-4-ethyl-6-(4-methyl-1,4-diazepan-1-yl)pyridin-2-yl)thio)methyl)benzyl)propanamide]
		> 31600	D (Category D: ≥6.5)	CCc1c(C#N)c(SCc2ccc(CNC(=O)[C@H](C)N)cc2)nc(N2CCCN(C)CC2)c1C#N [Example 97, (S)-2-Amino-N-(4-(((3,5-dicyano-4-ethyl-6-(4-methyl-1,4-diazepan-1-yl)pyridin-2-yl)thio)methyl)benzyl)propanamide]
		> 31600	D (Category D: ≥6.5)	CCc1c(C#N)c(SCc2ccc(CNC(=O)[C@@H](C)N)cc2)nc(N2CCCN(C)CC2)c1C#N [Example 98, (R)-2-Amino-N-(4-(((3,5-dicyano-4-ethyl-6-(4-methyl-1,4-diazepan-1-yl)pyridin-2-yl)thio)methyl)benzyl)propanamide]
316 to 1000	316 to 1000	1000 to 31600		CCNC(=O)NCc1ccc(CSc2nc(N3CCCN(C)CC3)c(C#N)c(CC)c2C#N)cc1 [Example 99, 1-(4-(((3,5-Dicyano-4-ethyl-6-(4-methyl-1,4-diazepan-1-yl)pyridin-2-yl)thio)methyl)benzyl)-3-ethylurea]
316 to 1000		> 31600		CCc1c(C#N)c(SCc2ccc(CNC(=O)Nc3ccccc3)cc2)nc(N2CCCN(C)CC2)c1C#N [Example 100, 1-(4-(((3,5-Dicyano-4-ethyl-6-(4-methyl-1,4-diazepan-1-yl)pyridin-2-yl)thio)methyl)benzyl)-3-phenylurea]
		1000 to 31600	D (Category D: ≥6.5)	CCOc1c(C#N)c(SCc2ccc(CNC(C)=O)cc2)nc(N2CCCN(C)CC2)c1C#N [Example 105, N-(4-(((3,5-Dicyano-4-ethoxy-6-(4-methyl-1,4-diazepan-1-yl)pyridin-2-yl)thio)methyl)benzyl)acetamide]
